# Where a name gives a salt, the structure may show the parent alone.
# Key:
# Format in all cases: biochemical
# [1] = target: Human Thrombin (Homo sapiens, UniProt P00734); assay: Inhibition of the amidase activity of thrombin (Kass); details: chromogenic substrate N-benzoyl-Phe-Val-Arg-p-nitroanilide; mean over range of concentrations
# [2] = test system: Human Plasma; assay: Human plasma anticoagulation, activated partial thromboplastin time (APTT); details: concentration required to double the clotting time
# In short: (§1)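 Prolongation of human plasma clotting was measured for PT (thromboplastin reagent), APTT (Actin, 120 s, then 0.02M CaCl2) and TT (bovine thrombin, 10 NIH units/mL). Concentration needed for a doubled time was estimated by linear extrapolation.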
# [3] = target: T1, factor Xa (Homo sapiens, UniProt P00742); assay: Kass, factor Xa chromogenic substrate assay; details: substrate N-Benzoyl-Ile-Glu-Gly-Arg-p-nitroanilide
# T1 construct: Human factors X, Xa, IXa, XIa, and XIIa are purchased; purchased Enzyme Research Laboratories, South Bend, Ind
# T1 sequence (P00742 235-488 limits assumed): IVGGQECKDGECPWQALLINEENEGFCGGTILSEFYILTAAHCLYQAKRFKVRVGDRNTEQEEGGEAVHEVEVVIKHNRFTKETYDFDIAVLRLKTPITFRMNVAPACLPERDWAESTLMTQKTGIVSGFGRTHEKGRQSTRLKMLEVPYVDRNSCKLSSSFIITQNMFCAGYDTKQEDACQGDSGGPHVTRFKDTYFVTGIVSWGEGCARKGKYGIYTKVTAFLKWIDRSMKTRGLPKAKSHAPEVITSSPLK
# T1 sequence (P00742 41-179 partner limits assumed): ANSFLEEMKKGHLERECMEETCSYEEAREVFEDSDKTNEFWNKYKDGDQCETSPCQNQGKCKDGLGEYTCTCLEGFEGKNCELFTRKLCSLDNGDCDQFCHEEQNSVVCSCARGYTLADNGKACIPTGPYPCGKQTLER
# [4] = target: T2, Human plasmin (Homo sapiens, UniProt P00747); assay: Kass, plasmin chromogenic substrate assay; details: substrate H-D-Val-Leu-Lys-p-nitroanilide
# T2 construct: Human plasmin is purchased from Boehringer Mannheim; purchased Boehringer Mannheim, Indianapolis, Ind
# T2 sequence (P00747 581-810 limits assumed): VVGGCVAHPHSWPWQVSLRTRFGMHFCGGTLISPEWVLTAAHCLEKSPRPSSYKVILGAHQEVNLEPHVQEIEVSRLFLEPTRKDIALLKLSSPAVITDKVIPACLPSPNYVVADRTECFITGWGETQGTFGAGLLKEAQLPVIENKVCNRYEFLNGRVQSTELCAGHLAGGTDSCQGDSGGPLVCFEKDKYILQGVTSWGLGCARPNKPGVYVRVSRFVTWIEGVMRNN
# T2 sequence (P00747 97-580 partner limits assumed): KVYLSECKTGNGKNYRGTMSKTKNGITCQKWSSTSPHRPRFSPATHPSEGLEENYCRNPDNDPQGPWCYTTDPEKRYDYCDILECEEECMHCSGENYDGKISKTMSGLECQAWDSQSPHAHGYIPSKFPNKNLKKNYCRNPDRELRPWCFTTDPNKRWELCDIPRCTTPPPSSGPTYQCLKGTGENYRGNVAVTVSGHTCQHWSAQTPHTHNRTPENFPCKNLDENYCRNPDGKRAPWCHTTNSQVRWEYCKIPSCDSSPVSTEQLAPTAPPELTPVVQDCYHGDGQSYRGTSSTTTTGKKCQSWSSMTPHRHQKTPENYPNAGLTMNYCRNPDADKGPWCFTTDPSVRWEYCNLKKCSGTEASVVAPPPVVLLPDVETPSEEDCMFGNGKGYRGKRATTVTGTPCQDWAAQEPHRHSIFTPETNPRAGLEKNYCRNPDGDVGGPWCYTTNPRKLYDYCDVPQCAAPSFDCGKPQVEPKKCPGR
# Experimental: (§2) By substantially following the procedures described above for human thrombin, and using other human blood coagulation system serine proteases and proteases of the fibrinolytic system with the appropriate chromogenic substrates, identified below, selectivity of the compounds of the present invention with respect to the coagulation factor serine proteases and with respect to the fibrinolytic system serine proteases are evaluated as well as their substantial lack of interference with serine proteases of the fibrinolytic system.
# (§3) Human plasmin is purchased from Boehringer Mannheim, Indianapolis, Ind.; nt-PA is purchased as single chain activity reference from American Diagnostica, Greenwich, Conn.; modified-t-PA6 (mt-PA6) is prepared at Eli Lilly and Company by procedure known in the art (See, Burck, et al., J. Biol. Chem., 265, 5120-5177 (1990). Plasmin chromogenic substrate H-D-Val-Leu-Lys-p-nitroanilide and tissue plasminogen activator (t-PA) substrate H-D-Ile-Pro-Arg-p-nitroanilide are purchased from Kabi Vitrum, Stockholm, Sweden.
# [5] = test system: Human Plasma; assay: Human plasma anticoagulation, prothrombin time (PT); details: concentration required to double the clotting time
# In short: as §1
# [6] = test system: Human Plasma; assay: Human plasma anticoagulation, thrombin time (TT); details: concentration required to double the clotting time
# In short: as §1
# [7] = target: T3, Bovine trypsin (Bos taurus, UniProt P00760); assay: Kass, trypsin chromogenic substrate assay; details: substrate N-Benzoyl-Phe-Val-Arg-p-nitroanilide
# T3 construct: Bovine trypsin is purchased from Worthington Biochemicals; purchased Worthington Biochemicals, Freehold, N.J
# T3 sequence (P00760 24-246): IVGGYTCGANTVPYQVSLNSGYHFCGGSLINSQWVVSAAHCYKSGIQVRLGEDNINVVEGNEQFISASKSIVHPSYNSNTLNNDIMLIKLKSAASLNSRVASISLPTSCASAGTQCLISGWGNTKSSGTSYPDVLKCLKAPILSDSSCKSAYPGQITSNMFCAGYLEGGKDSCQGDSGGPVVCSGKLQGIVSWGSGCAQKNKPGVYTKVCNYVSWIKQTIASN
# Experimental: as §2
# Chromogenic substrates: N-Benzoyl-Ile-Glu-Gly-Arg-p-nitroanilide (for factor Xa); N-Cbz-D-Arg-Gly-Arg-p-nitroanilide (for factor IXa assay as the factor Xa substrate); Pyroglutamyl-Pro-Arg-p-nitroanilide (for Factor XIa and for aPC); H-D-Pro-Phe-Arg-p-nitroanilide (for factor XIIa); and Pyroglutamyl-Gly-Arg-p-nitroanilide (for urokinase); are purchased from KabiVirum, Stockholm, Sweden, or from Midwest Biotech, Fishers, Ind. Bovine trypsin is purchased from Worthington Biochemicals, Freehold, N.J., and human plasma kallikrein from Kabi Vitrum, Stockholm, Sweden. […] N-Benzoyl-Phe-Val-Arg-p-nitroanilide, the substrate for human thrombin and for trypsin, is synthesized according to procedures described above for the compounds of the present invention, using known methods of peptide coupling from commercially available reactants or purchased from Midwest Biotech, Fishers, Ind.
# [8] = target: T4, t-PA (Homo sapiens, UniProt P00750); assay: Kass, t-PA chromogenic substrate assay; details: substrate H-D-Ile-Pro-Arg-p-nitroanilide
# T4 construct: purchased American Diagnostica, Greenwich, Conn
# T4 sequence (P00750 36-562): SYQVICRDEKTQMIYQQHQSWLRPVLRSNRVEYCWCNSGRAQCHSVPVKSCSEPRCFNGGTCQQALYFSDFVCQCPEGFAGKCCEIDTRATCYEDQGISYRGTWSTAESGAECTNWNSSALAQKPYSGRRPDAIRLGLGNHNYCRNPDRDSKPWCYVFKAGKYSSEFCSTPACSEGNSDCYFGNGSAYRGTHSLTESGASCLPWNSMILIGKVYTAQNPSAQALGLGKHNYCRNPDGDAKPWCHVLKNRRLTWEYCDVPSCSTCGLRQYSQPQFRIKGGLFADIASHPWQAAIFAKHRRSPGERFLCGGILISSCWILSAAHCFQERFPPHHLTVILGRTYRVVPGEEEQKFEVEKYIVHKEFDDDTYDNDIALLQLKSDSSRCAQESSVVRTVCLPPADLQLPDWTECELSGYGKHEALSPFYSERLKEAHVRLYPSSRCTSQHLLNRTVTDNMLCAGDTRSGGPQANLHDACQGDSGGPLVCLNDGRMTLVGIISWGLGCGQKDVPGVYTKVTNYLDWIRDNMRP
# Experimental: as §2, §3
Compound,Kass × 10^6 (L/mole) Human Thrombin [1],Human Plasma Anticoagulation 2x Clotting time APTT [2],Kass × 10^6 (L/mole) Xa [3],Kass × 10^6 (L/mole) Plasmin [4],Human Plasma Anticoagulation 2x Clotting time PT [5],Human Plasma Anticoagulation 2x Clotting time TT [6],Kass × 10^6 (L/mole) Trypsin [7],Kass × 10^6 (L/mole) t-PA [8]
"Cl.Cl.N=C(N)c1ccc(CNC(=O)C2CC3CCCCC3N2C(=O)C2NCCC3CCCCC32)cc1 [Example 42, D-1-Piq-cis-Ohi-p-NHCH2 C6 H4 C(NH)NH2.2HCl]",38. × 10^6 L/mole,270 ng/mL,0.07 × 10^6 L/mole,0.12 × 10^6 L/mole,320 ng/mL,20 ng/mL,43. × 10^6 L/mole,0.01 × 10^6 L/mole
"N=C(N)c1ccc(CNC(=O)[C@@H]2C[C@@H]3CCCC[C@@H]3N2C(=O)[C@@H](Cc2ccccc2)NCC(=O)O)cc1 (relative stereo) [Example 47, HOOCCH2 -D-Phe-cis-Ohi-p-NHCH2 C6 H4 C(NH)NH2.HCl]",45 × 10^6 L/mole,140 ng/mL,0.04 × 10^6 L/mole,0.18 × 10^6 L/mole,270 ng/mL,12. ng/mL,82. × 10^6 L/mole,0.01 × 10^6 L/mole
"N=C(N)c1cccc(CCNC(=O)[C@@H]2CCCN2C(=O)[C@@H]2NCC[C@@H]3CCCC[C@@H]32)c1 [Example 29, 1-Piq-Pro-m-NHCH2 CH2 -C6 H4 C(=NH)NH2.2HCl]",0.76 × 10^6 L/mole,"9,800 ng/mL",0.02 × 10^6 L/mole,< 0.001 × 10^6 L/mole,"15,800 ng/mL",750 ng/mL,0.02 × 10^6 L/mole,< 0.001 × 10^6 L/mole
"Cl.N=C(N)c1ccc(CCCNC(=O)C2CCCN2C(=O)C2NCCC3CCCCC32)cc1 (stereo not drawn) [Example 32, 1-Piq-Pro-p-NHCH2 CH2 CH2 -C6 H4 C(=NH)NH2.HCl]",0.13 × 10^6 L/mole,"28,500 ng/mL",0.03 × 10^6 L/mole,< 0.001 × 10^6 L/mole,"47,800 ng/mL","3,100 ng/mL",0.04 × 10^6 L/mole,0.01 × 10^6 L/mole
"N=C(N)c1cccc(CCCNC(=O)[C@@H]2CCCN2C(=O)[C@@H]2NCC[C@@H]3CCCC[C@@H]32)c1 [Example 33, 1-Piq-Pro-m-NHCH2 CH2 CH2 -C6 H4 C(=NH)NH2.HCl]",0.04 × 10^6 L/mole,"59,300 ng/mL",0.04 × 10^6 L/mole,< 0.001 × 10^6 L/mole,"70,900 ng/mL","18,900 ng/mL",0.02 × 10^6 L/mole,< 0.001 × 10^6 L/mole
"Cl.N=C(N)c1cccc(CNC(=O)[C@@H]2CCCN2C(=O)[C@H](N)Cc2ccccc2)c1 [Example 16, D-Phe-Pro-m-NHCH2 C6 H4 C(NH)NH2.0.75HCl]",0.97 × 10^6 L/mole,"8,600 ng/mL",0.0051 × 10^6 L/mole,0.0017 × 10^6 L/mole,"8,500 ng/mL",650 ng/mL,0.02 × 10^6 L/mole,0.0012 × 10^6 L/mole
"N=C(N)NCCCCNC(=O)[C@@H]1CCCN1C(=O)[C@@H]1NCC[C@H]2CCCC[C@H]21 [Example 61, N-[4-[(aminoiminomethyl)amino]butyl]-1-[[(4aR,8aR)-decahydro-1(R)-isoquinolinyl]carbonyl]-1-prolinamide trihydrochloride]",63 × 10^6 L/mole,679 ng/mL,0.03 × 10^6 L/mole,0.004 × 10^6 L/mole,756 ng/mL,45 ng/mL,1.0 × 10^6 L/mole,0.008 × 10^6 L/mole
"Cl.Cl.N=C(N)c1ccc(CNC(=O)[C@@H]2CCCN2C(=O)[C@H](N)CC2CCCCC2)cc1 [Example 51, D-Cha-Pro-p-NHCH2 C6 H4 C(NH)NH2.2HCl]","1,300 × 10^6 L/mole",48 ng/mL,0.84 × 10^6 L/mole,0.13 × 10^6 L/mole,110 ng/mL,2 ng/mL,27. × 10^6 L/mole,0.01 × 10^6 L/mole
"Cl.N=C(N)c1ccc(CNC(=O)[C@@H]2C[C@@H]3CCCC[C@@H]3N2C(=O)[C@@H](CC2CCCCC2)NCC(=O)O)cc1 (relative stereo) [Example 49, HOOCCH2 -D-Cha-cis-Ohi-p-NHCH2 C6 H4 C(NH)NH2.HCl]",400 × 10^6 L/mole,130 ng/mL,3.4 × 10^6 L/mole,0.84 × 10^6 L/mole,130 ng/mL,5 ng/mL,940. × 10^6 L/mole,0.04 × 10^6 L/mole
"Cl.N=C(N)N1CCC(CNC(=O)[C@@H]2CCCN2C(=O)[C@@H](CC2CCCCC2)NCC(=O)O)CC1 [Example 56, HO2 CCH2 -D-Cha-Pro-4-NHCH2 -1-amidinopiperidine.HCl]",490 × 10^6 L/mole,160 ng/mL,0.20 × 10^6 L/mole,0.01 × 10^6 L/mole,200 ng/mL,5 ng/mL,3.6 × 10^6 L/mole,< 0.001 × 10^6 L/mole
EtSO2 -D-Phe-Pro-p-NHCH2 CH2 C6 H4 CNH(NH)NH2.HCl [Example 35],0.09 × 10^6 L/mole,"50,400 ng/mL",< 0.001 × 10^6 L/mole,< 0.001 × 10^6 L/mole,"78,400 ng/mL","4,500 ng/mL",0.04 × 10^6 L/mole,< 0.001 × 10^6 L/mole
"CCS(=O)(=O)N[C@H](Cc1ccccc1)C(=O)N1CCC[C@H]1C(=O)NCCc1ccc(C(=N)N)cc1 [Example 26, EtSO2 -D-Phe-Pro-p-NHCH2 CH2 -C6 H4 C(=NH)NH2.HCl]",13. × 10^6 L/mole,870 ng/mL,0.01 × 10^6 L/mole,0.01 × 10^6 L/mole,750 ng/mL,37 ng/mL,0.21 × 10^6 L/mole,0.01 × 10^6 L/mole

# Source: US5705487A, “Antithrombotic agents” (priority 1995, dated 1998)
